From US10766869B2, “Triazoles for the treatment of demyelinating dieases” (Vertex Pharmaceuticals Incorporated, priority 2015, dated 2020)
Where two headings read alike, the source gives them in different places.

Experiments:
[1] = tested on: C57BL/6 mice demyelinated with cuprizone; experiment: In vivo mouse cuprizone assay (new myelin, MBP positive / MOG negative area); details: for effect measured as new myelin generated in response to compound treatment compared to control with no added compound: Regimen A (QD or BID for 14 days via oral gavage), various doses; for effect (new myelin generated compared to control): Regimen A, oral gavage
Text: Assays for Detecting and Measuring Remyelination Properties of Compounds In Vivo Mouse Cuprizone Assay:
Cuprizone Feeding Protocol:
2 month old female C57BL/6 mice (Stock Number: 000664) were purchased from Jackson Labs and fed for 4-10 months with a 0.2% cuprizone chow (provided by Research Diets, Product # D10020701R, Description AIN-76A Rodent Diet with 0.2% cuprizone) using cuprizone purchased from Sigma (Cat #14690-100G). Chow was provided ad libitum, and refreshed every 4 days to ensure stability of the cuprizone. Mice were maintained on this diet for 4-10 months before initiation of the experiments.
1) 24 hours prior to the start of dosing, 6 to 10 mice were switched from cuprizone chow to normal chow (Picolab rodent diet 20 EXT IRR 5053, irradiated) without added cuprizone. These mice were maintained on normal chow throughout the course of dosing.
2) 6 to 10 mice per group were randomized into new cages such that mice that were housed in one cage during the cuprizone diet were not housed together in one dose group during the study.
3) Mice were dosed with compound in one of two regimens: Regimen A: mice were dosed QD or BID for 14 days via oral gavage. Regimen B: mice were dosed QD or BID for 14 days via IP injection. However, other dosing schedules and/or routes of administration may also be used.
4) On the last day of dosing, dried blood spots were collected at multiple time points following the last dose. Often this was 30 minutes, 2, 6 and 24 hours following the final dose on day 14 via the tail vein.
Perfusion and Sectioning:
1) The day after the last day of dosing, mice were transcardially perfused with 12 ml of PBS (Sigma, P4417) followed by 20 ml of 3.2% paraformaldehyde in PBS (Electron Microscopy Sciences #15714-S). The brains were removed via standard dissection techniques and each was postfixed in 3.2% paraformaldehyde (20 ml) for 24-48 hours at room temperature in sealed scintillation vials.
2) Serial 50 micron sections were collected through the anterior posterior extent of the brain, from just behind the olfactory bulb, through visual cortex using a vibrating microtome, the V-STAR (described in International Publication No. WO 2013/012799 and U.S. Pat. No. 8,967,024 both of which are incorporated herein by reference in their entirety). Sections were collected in phosphate buffered saline (PBS). Vibratome speed was set to 1.1 mm/s and amplitude was set to 0.8 mm.
3) A series of every 24th section was removed for staining yielding 5 sections per brain.
1) Tissue sections were stained using an automated system for processing blots (hereinafter the “blotinator”) (described in WO2011/087646 and U.S. Pat. Nos. 8,337,754 and 8,679,406 each of which is incorporated herein by reference in its entirety). Brain sections were placed in the blotinator plate and bathed in PBS. The blotinator applied primary antibodies (MOG and MBP together) and Hoechst nuclear stain for 12 hours at room temperature with constant shaking.
The following stains were diluted in blocking buffer (described below):
Hoechst nuclear stain (0.5 mg/ml)(bisBenzimide H 33342 trihydrochloride Sigma #33342).
Myelin basic Protein (MBP) antibody (Abcam Cat # ab7349) was diluted at a 1:750 ratio in blocking buffer).
Myelin Oligodendrocyte Glycoprotein (MOG) (R&D systems Cat # AF2439) was diluted at a 1:250 ratio in blocking buffer.
Antibodies were diluted in blocking buffer, which consisted of 0.3% Triton X-100 (Sigma Cat #234729), 0.02% Sodium Azide (Sigma Cat # S2002) and 8% fetal bovine serum in PBS (Sigma Cat # F2442).
2) The blotinator washed the samples 4 times for 5 minutes each with a wash buffer (0.2% Triton X-100 in PBS).
3) The blotinator applied secondary antibodies diluted in blocking buffer and incubated them for 2 hours with constant shaking.
Alexa 488 donkey anti-rat secondary (Life technologies Cat # A-21208) was diluted at 1:1000 in blocking buffer. […]

[2] = tested on: primary rat mixed cortical cells; experiment: In vitro myelination assay (MBP positive myelin strands, fold myelin pixels above background); assay type: cell-based; details: Rattus norvegicus, relative to baseline of no added compound; for fold induction at 1 µM: 1.0 μM compound; for fold induction at 10 µM: 10.0 μM compound
In short: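 Read-out is total MBP-positive myelin strand pixels per well, detected by custom ridge-tracing software and reported as fold over untreated baseline. Primary P1 rat mixed cortical cells received compound (1.0 or 10.0 μM) for 14 days, with medium half-replaced on days 6 and 10. Standard deviation was taken across all replicates.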

[3] = read-out: Fold myelin pixels above background, 1.0 μM
[4] = read-out: Fold myelin pixels above background, 10.0 μM
[5] = read-out: Fold myelin pixels above background

SMILES | effect measured as new myelin generated in response to compound treatment compared to control with no added compound [1] | effect (new myelin generated compared to control) ([1]; 10 mpk) | effect (new myelin generated compared to control) ([1]; 25 mpk) | effect (new myelin generated compared to control) ([1]; 50 mpk) | fold induction at 1 µM [2, 3] | fold induction at 10 µM [2, 4] | effect (new myelin generated compared to control) ([1]; 30 mpk) | effect (new myelin generated compared to control) ([1]; 100 mpk) | effect (new myelin generated compared to control) ([1]; 90 mpk) | effect (new myelin generated compared to control) ([1]; 60 mpk) | effect (new myelin generated compared to control) ([1]; 20 mpk) | effect (new myelin generated compared to control) ([1]; 40 mpk) | fold induction at 1 µM [2, 5] | fold induction at 10 µM [2, 5] | effect (new myelin generated compared to control) ([1]; 8 mpk)
Cc1cc(Nc2ncn(-c3cc(F)cc(F)c3)n2)cc(N2CCN(C3COC3)CC2)c1 [Compound 33, 1-(3,5-difluorophenyl)-N-[3-methyl-5-[4-(oxetan-3-yl)piperazin-1-yl]phenyl]-1,2,4-triazol-3-amine] | positive effect | positive effect | positive effect | positive effect | 100 to 1000 | ≤ 1 |  |  |  |  |  |  |  |  | 
CCc1cc(Nc2ncn(-c3cnccn3)n2)cc(N2CCN(C3COC3)CC2)c1 [Compound 48, N-[3-ethyl-5-[4-(oxetan-3-yl)piperazin-1-yl]phenyl]-1-pyrazin-2-yl-1,2,4-triazol-3-amine] | positive effect |  |  | positive effect | 100 to 1000 | 100 to 1000 | positive effect | positive effect |  |  |  |  |  |  | 
CCc1cc(Nc2ncn(-c3cc(F)cc(F)c3)n2)cc(N2CCN(C3COC3)CC2)c1 [Compound 107, 1-(3,5-difluorophenyl)-N-[3-ethyl-5-[4-(oxetan-3-yl)piperazin-1-yl]phenyl]-1,2,4-triazol-3-amine] | positive effect |  |  |  | 1000 to 10000 | 1000 to 10000 | positive effect |  | positive effect |  |  |  |  |  | 
Cc1cc(Nc2ncn(-c3cnccn3)n2)cc(N2CCN(C3COC3)CC2)c1 [Compound 195, N-[3-methyl-5-[4-(oxetan-3-yl)piperazin-1-yl]phenyl]-1-pyrazin-2-yl-1,2,4-triazol-3-amine] | positive effect |  |  |  | 100 to 1000 | 100 to 1000 |  | positive effect |  | positive effect |  |  |  |  | 
Cc1cc(Nc2ncn(-c3cc(F)cc(F)c3)n2)cc(N2CCN(C3(C)COC3)CC2)c1 [Compound 215, 1-(3,5-difluorophenyl)-N-[3-methyl-5-[4-(3-methyloxetan-3-yl)piperazin-1-yl]phenyl]-1,2,4-triazol-3-amine] | positive effect |  |  |  | 10 to 100 | 10 to 100 | positive effect |  | positive effect |  |  |  |  |  | 
Cc1cc(Nc2ncn(-c3ccccc3)n2)cc(N2CCN(C)CC2)c1 [Compound 247, N-[3-methyl-5-(4-methylpiperazin-1-yl)phenyl]-1-phenyl-1,2,4-triazol-3-amine] | positive effect | positive effect | positive effect | positive effect | 100 to 1000 | ≤ 1 |  |  |  |  |  |  |  |  | 
Cc1cc(Nc2ncn(-c3cc(F)cc(F)c3)n2)nc(N2CCN(C3COC3)CC2)c1 [Compound 331, N-[1-(3,5-difluorophenyl)-1,2,4-triazol-3-yl]-4-methyl-6-[4-(oxetan-3-yl)piperazin-1-yl]pyridin-2-amine] | positive effect |  |  |  | 1 to 10 | 10 to 100 | positive effect |  |  |  | positive effect | positive effect |  |  | 
Cc1cc(Nc2ncn(-c3cccc(F)c3)n2)cc(N2CCN(C3COC3)CC2)c1 [Compound 406, 1-(3-fluorophenyl)-N-[3-methyl-5-[4-(oxetan-3-yl)piperazin-1-yl]phenyl]-1,2,4-triazol-3-amine] | positive effect |  | positive effect | positive effect |  |  |  |  |  |  |  |  | 1000 to 10000 | ≤ 1 | 
Cc1cc(Nc2ncn(-c3cc(F)cc(F)c3)n2)cc(N2CC(N3CCOCC3)C2)c1 [Compound 485, 1-(3,5-difluorophenyl)-N-[3-methyl-5-(3-morpholinoazetidin-1-yl)phenyl]-1,2,4-triazol-3-amine] | positive effect |  |  |  |  |  | positive effect |  |  |  | positive effect |  | 10 to 100 | 1 to 10 | 
Fc1cc(F)cc(-n2cnc(Nc3cc(C(F)F)cc(N4CCN(C5COC5)CC4)n3)n2)c1 [Compound 512, 4-(difluoromethyl)-N-[1-(3,5-difluorophenyl)-1,2,4-triazol-3-yl]-6-[4-(oxetan-3-yl)piperazin-1-yl]pyridin-2-amine] | positive effect |  |  | positive effect |  |  |  |  |  |  |  |  | 100 to 1000 | 100 to 1000 | 
Fc1ccc(-n2cnc(Nc3cc(C(F)F)cc(N4CCN(C5COC5)CC4)n3)n2)cc1F [Compound 524, 4-(difluoromethyl)-N-[1-(3,4-difluorophenyl)-1,2,4-triazol-3-yl]-6-[4-(oxetan-3-yl)piperazin-1-yl]pyridin-2-amine] | positive effect | positive effect |  |  |  |  | positive effect |  |  |  | positive effect |  | 100 to 1000 | 100 to 1000 | 
Cc1cc(Nc2ncn(-c3cc(F)cc(F)c3)n2)c(F)c(N2CCN(C3COC3)CC2)c1 [Compound 691, 1-(3,5-Difluorophenyl)-N-(2-fluoro-5-methyl-3-(4-(oxetan-3-yl)piperazin-1-yl)phenyl)-1H-1,2,4-triazol-3-amine] | positive effect | positive effect |  |  |  |  |  |  |  |  | positive effect |  | 10 to 100 | 10 to 100 | positive effect
